Assay results: patent US20200277278A1, “Deuterium Atom-Substituted Indole Formamide Derivative, Preparation Method Therefor, and Medical Applications Thereof” (Jiangsu Hengrui Medicine Co., Ltd., priority 2017, published 2020)
Read-outs that look alike come from different tables or passages of the source.

Assays:
[1] = tested on: IL-17A; assay: IL-17A enzyme-linked immune quantitative assay in cytostim-activated human PBMC; assay type: cell-based; conditions: 72 h, 3 days
Description: Frozen human peripheral blood mononuclear cells (PBMC) were rapidly resuscitated in pre-warmed lymphocyte culture medium, and centrifuged at 1000 rpm for 10 min. The cell culture supernatant was removed. The cells were gently suspended in TexMACS medium and counted. The T cell activation reagent cytostim (10 μl/ml) was added in proportion to the cell suspension. Then, the cells were seeded in a 96-well cell culture plate at a density of 1×10^5 peripheral blood mononuclear cells/well. The test compounds were diluted in gradient with TexMACS medium, and added respectively to the test wells, with 2-3 parallel wells per group. A negative control well containing only cells without cytostim was provided to obtain the background reading. The cell culture plate was placed in a incubator at 5% carbon dioxide, 37° C. to incubate for 3 days. The cell culture supernatant was collected 3 days after drug treatment, and centrifuged to remove the suspension. Then, IL-17A in the supernatant was quantified with IL-17A enzyme-linked immunosorbent kit. EC50 values of the test compounds were calculated with GraphPad Prism 6.0.

[2] = target: T1, RORγ LBD (Homo sapiens, UniProt P51449); assay: LanthaScreen TR-FRET RORγ co-activation system, effect on in vitro activity of RORγ; assay type: biochemical
T1 construct: RORγ LBD (AB Vector); purchased AB Vector
T1 sequence (P51449 269-508 limits assumed): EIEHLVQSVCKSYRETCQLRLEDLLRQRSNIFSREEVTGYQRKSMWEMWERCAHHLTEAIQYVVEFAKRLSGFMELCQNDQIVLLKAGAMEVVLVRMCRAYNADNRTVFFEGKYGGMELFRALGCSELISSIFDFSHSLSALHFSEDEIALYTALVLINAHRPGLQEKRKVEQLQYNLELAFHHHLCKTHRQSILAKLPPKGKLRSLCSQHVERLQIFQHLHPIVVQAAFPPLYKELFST
Description: A complete buffer D (complete TR-FRET Coregulator) (Life Technologies) was formulated first, containing a final concentration of 5 mM DTT. The final concentration of DMSO was 2%. The test compound was serially diluted to 2× final concentration in the complete buffer D containing 2% of DMSO, and the maximum dose was 60 μm. The test compound was added to the test wells of a 384-well plate (PerkinElmer) in 10 μl/well. Two parallel control wells were set up for each test compound at the same concentration. 4×RORγ LBD (AB Vector) was formulated. RORγ LBD was diluted with the complete buffer D to a concentration of 1 ng/μL, and added to the test wells of the 384-well plate in 5 µl/well. The negative control well was 5 μL of complete buffer D without RORγ LBD. A mixed solution comprising 0.6 μM of fluorescein-D22 (4×) and 8 nM of terbium (Tb)-labeled anti-GST antibody (4×) (Life Technologies) was formulated with the complete buffer D, and 5 μL of the mixed solution was added to the 384-well plate. The total reaction system was 20 μL. The 384-well plate was gently shaken on a shaker, and incubated at room temperature in the dark for 2-4 hours.
Fluorescence readings were determined with Tecan Infinite M1000. The logarithmic curve of the ratio of the emission wavelength of 520 nm/495 nm to the concentration of the compound was plotted by GraphPad Prism 6.0 software. EC50 value of the test compound was calculated.

[3] = Pharmacokinetics assay in mice; assay type: in vivo; conditions: female, mouse, po, C57 mice, intragastric, 2 mg/kg; for Vd/F: read-out: Apparent distribution volume Vz/F; for AUC: read-out: Area under curve AUC; for CL/F: read-out: Clearance CLz/F; for half-life: read-out: Half-life T½ (converted); for Cmax: read-out: Plasma concentration Cmax; for MRT: read-out: Residence time MRT
Description: Mice were used as test animals. […] The pharmacokinetic behavior of the compounds of the present invention was studied and evaluated in mice. A group of eighteen C57 mice (female, equally divided into two groups) were purchased from Shanghai Jiesijie Laboratory Animal Co., LTD, with Certificate No.: SCXK (Shanghai) 2013-0006. A certain amount of the test compound was weighed, and added with 5% by volume of DMSO, 5% by volume of tween 80 and 90% by volume of normal saline to prepare a 0.1 mg/mL colorless, clear and transparent solution. […] The samples were stored in heparinized tubes, and centrifuged for 10 minutes at 3500 rpm to separate the blood plasma. The plasma samples were stored at −20° C. The content of the test compound in the plasma of mice after intragastrical administration of the test compound at different concentrations was determined: 25 μL of mouse plasma at each time after administration was taken, added with 80 μL of the internal standard solution of camptothecin (100 ng/mL) and 200 μL of acetonitrile, vortex-mixed for 5 minutes, and centrifuged for 10 minutes (3600 rpm). 1 μL of the supernatant was taken from the plasma samples for LC/MS/MS analysis.

[4] = tested on: MC38 colorectal tumor; assay: Efficacy in isotype MC38 colorectal tumor mice model; assay type: in vivo, C57BL/6 mice
Description: Female C57BL/6 mice (20-25 gram, 7-9 weeks old) were used in the experiment. In vivo antitumor activity of the compound of Example 1 administered alone or the compound of Example 1 administered in combination with anti-mouse PD-1 antibody was evaluated by detecting the growth of isotype MC38 colorectal tumor in inbred C57BL/6 mice. 500,000 (5×10^5) MC38 cells were implanted subcutaneously in the right abdomen of each mouse. When the tumor grew to 40-80 mm^3 (on Day 6), the mice were grouped randomly into the above four groups. In Group III and IV, the mice were administered the compound of Example 1 (0.5 mg/kg) once a day for 20 consecutive days. During the treatment experiment in Group II and IV, the anti-mouse PD-1 (CD279) antibody (BioXcell) (5 mg/kg) was intraperitoneally injected (i.p.) to the mice bearing MC38 tumor on Day 6, 9, 12 and 15, respectively. […]
The tumor volume was measured with a caliper in three dimensions, and then calculated according to the following formula: tumor volume (mm^3)=1×w×h×0.5236, wherein 1 represents the length of the tumor, w represents the width of the tumor, and h represents the height of the tumor, in millimeters. […]

[2H]C([2H])(F)Cn1c(Cc2ccc(Cl)cc2C(F)(F)F)cc2cc(C(=O)N[C@@H](CO)c3ccc(S(=O)(=O)CC)cn3)ccc21 [Example 13, 2-[[4-Chloro-2-(trifluoromethyl)phenyl]methyl]-1-(2,2-dideutero-2-fluoro-ethyl)-N-[(1R)-1-(5-ethylsulfonyl-2-pyridinyl)-2-hydroxy-ethyl]indole-5-carboxamide]
EC50 [1]: 22 nM | Emax [1]: 88% | EC50 [2]: 9 nM | Emax [2]: 77%

[2H]C([2H])([2H])C([2H])([2H])S(=O)(=O)c1ccc([C@H](CO)NC(=O)c2ccc3c(c2)cc(Cc2ccc(Cl)cc2C(F)(F)F)n3CCF)cc1 (single isomer, unassigned) [Example 6]
EC50 [1]: 37 nM | Emax [1]: 100% | Vd/F ([3]; in vivo): 0.575 L/kg | AUC ([3]; in vivo): 31600 ng·h/mL | CL/F ([3]; in vivo): 1.06 mL/min/kg | half-life ([3]; in vivo): 6.29 h | Cmax ([3]; in vivo): 2730 ng/mL | MRT ([3]; in vivo): 9.13 h

[2H]C([2H])(NC(=O)c1ccc2c(c1)cc(Cc1ccc(Cl)cc1C(F)(F)F)n2CCF)c1ccc(S(=O)(=O)CC)cc1 [Example 3, 2-[[4-Chloro-2-(trifluoromethyl)phenyl]methyl]-N-[dideutero-(4-ethylsulfonylphenyl)methyl]-1-(2-fluoroethyl)indole-5-carboxamide]
EC50 [1]: 103 nM | Emax [1]: 102% | EC50 [2]: 17 nM | Emax [2]: 98%

[2H]C([2H])(F)Cn1c(Cc2ccc(Cl)cc2C(F)(F)F)cc2cc(C(=O)N[C@@H](CO)c3ccc(S(=O)(=O)CC)cc3)ccc21 (single isomer, unassigned) [Example 1]
EC50 [1]: 22 nM | Emax [1]: 88% | Tumor growth inhibition rate TGI ([4]; 0.5 mg/kg oral in combination with anti-mouse PD-1 monoclonal antibody 5 mg/kg i.p.): 65.5% | Tumor growth inhibition rate TGI ([4]; administered alone, 0.5 mg/kg oral, once a day for 20 days): 22.5% | Vd/F ([3]; plasma): 0.648 L/kg | AUC ([3]; plasma): 40400 ng·h/mL | CL/F ([3]; plasma): 0.82 mL/min/kg | half-life ([3]; plasma): 9.08 h | Cmax ([3]; plasma): 3710 ng/mL | MRT ([3]; plasma): 12 h

[2H]C([2H])(c1cc2cc(C(=O)N[C@@H](CO)c3ccc(S(=O)(=O)CC)cc3)ccc2n1C1CC1)n1nccc1C(F)(F)F [Example 2, 1-Cyclopropyl-2-[dideutero-[5-(trifluoromethyl)pyrazol-1-yl]methyl]-N-[(1R)-1-(4-ethylsulfonylphenyl)-2-hydroxy-ethyl]indole-5-carboxamide]
EC50 [2]: 16 nM | Emax [2]: 89%

[2H]C([2H])(C)n1c(Cc2ccc(Cl)cc2C(F)(F)F)cc2cc(C(=O)N[C@@H](CO)c3ccc(S(=O)(=O)CC)cc3)ccc21 [Example 11, 2-[[4-Chloro-2-(trifluoromethyl)phenyl]methyl]-1-(1,1-dideuteroethyl)-N-[(1R)-1-(4-ethylsulfonylphenyl)-2-hydroxyethyl]indole-5-carboxamide]
EC50 [2]: 21 nM | Emax [2]: 84%

[2H]C([2H])(O)Cn1c(Cc2ccc(Cl)cc2C(F)(F)F)cc2cc(C(=O)N[C@@H](CO)c3ccc(S(=O)(=O)CC)cc3)ccc21 [Example 5, 2-[[4-Chloro-2-(trifluoromethyl)phenyl]methyl]-1-(2,2-dideutero-2-hydroxy-ethyl)-N-[(1R)-1-(4-ethylsulfonylphenyl)-2-hydroxy-ethyl]indole-5-carboxamide]
EC50 [1]: 32 nM | Emax [1]: 82% | EC50 [2]: 9 nM | Emax [2]: 73%

[2H]C([2H])(NC(=O)c1ccc2c(c1)cc(Cc1ccccc1C(F)(F)F)n2C1CC1)c1ccc(S(=O)(=O)CC)cc1 [Example 4, 1-Cyclopropyl-N-[dideutero-(4-ethylsulfonylphenyl)methyl]-2-[[2-(trifluoromethyl)phenyl]methyl]indole-5-carboxamide]
EC50 [1]: 20 nM | Emax [1]: 79% | EC50 [2]: 5 nM | Emax [2]: 98%

[2H]C([2H])([2H])OC[C@H](NC(=O)c1ccc2c(c1)cc(Cc1ccc(Cl)cc1C(F)(F)F)n2CCF)c1ccc(S(=O)(=O)CC)cc1 [Example 8, 2-[[4-Chloro-2-(trifluoromethyl)phenyl]methyl]-N-[(1R)-1-(4-ethylsulfonylphenyl)-2-(trideuteromethoxy)ethyl]-1-(2-fluoroethyl)indole-5-carboxamide]
EC50 [2]: 34 nM | Emax [2]: 85%
